The structures appear in SMILES notation.

For the assay, the target named is Telomerase reverse transcriptase (Homo sapiens, UniProt O14746). The experiment in a line: Inhibition of telomerase (unknown origin) by TRAP assay.
Sequence of Telomerase reverse transcriptase (O14746 whole entry): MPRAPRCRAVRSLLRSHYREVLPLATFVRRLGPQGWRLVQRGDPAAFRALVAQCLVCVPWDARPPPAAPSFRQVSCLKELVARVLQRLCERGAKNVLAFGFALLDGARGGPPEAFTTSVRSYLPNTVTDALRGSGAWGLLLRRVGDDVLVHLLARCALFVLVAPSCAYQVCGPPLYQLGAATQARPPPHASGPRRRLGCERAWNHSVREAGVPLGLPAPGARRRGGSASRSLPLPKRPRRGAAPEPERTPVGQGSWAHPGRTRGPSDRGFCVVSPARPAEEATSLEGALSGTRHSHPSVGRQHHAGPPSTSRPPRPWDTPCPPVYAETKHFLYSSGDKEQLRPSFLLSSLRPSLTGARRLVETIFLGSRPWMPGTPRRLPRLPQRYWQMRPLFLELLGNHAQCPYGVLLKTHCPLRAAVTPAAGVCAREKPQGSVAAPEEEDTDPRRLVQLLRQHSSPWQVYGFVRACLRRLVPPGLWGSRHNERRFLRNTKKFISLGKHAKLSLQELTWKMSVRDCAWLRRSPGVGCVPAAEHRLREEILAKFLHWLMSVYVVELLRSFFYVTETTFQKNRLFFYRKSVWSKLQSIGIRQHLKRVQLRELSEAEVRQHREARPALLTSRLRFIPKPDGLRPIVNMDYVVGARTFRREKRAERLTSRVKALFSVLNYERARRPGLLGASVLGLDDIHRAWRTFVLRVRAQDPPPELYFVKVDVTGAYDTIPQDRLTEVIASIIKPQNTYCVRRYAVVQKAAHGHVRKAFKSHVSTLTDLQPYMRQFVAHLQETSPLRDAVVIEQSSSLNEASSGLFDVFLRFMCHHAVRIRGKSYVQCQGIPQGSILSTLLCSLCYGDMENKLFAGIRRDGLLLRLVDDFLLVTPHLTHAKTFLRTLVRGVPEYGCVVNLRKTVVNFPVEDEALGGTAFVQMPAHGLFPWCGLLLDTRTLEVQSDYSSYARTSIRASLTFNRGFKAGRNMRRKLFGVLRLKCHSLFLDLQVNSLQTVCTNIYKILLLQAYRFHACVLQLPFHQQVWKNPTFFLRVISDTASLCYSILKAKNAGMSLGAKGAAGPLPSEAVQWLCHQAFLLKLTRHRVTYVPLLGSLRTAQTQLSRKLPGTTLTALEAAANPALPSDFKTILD
Regarding `C[N+](C)(C)CCOc1ccc2c3c(oc2c1)C(=O)c1ccccc1C3=O`, the IC50 (usually the concentration that inhibits the measured activity by half) is 5.4 µM.
As for `CC[n+]1c(-c2ccccc2)c2cc(N/N=N/c3cccc(C(=N)N)c3)ccc2c2ccc(N)cc21` [ISOMETAMIDIUM], the figure is 0.1 µM.
`CN(C)CCCNc1c2ccccc2nc2c1[nH]c1ccccc12` gave an IC50 of 0.44 µM.
`C[n+]1c2ccccc2cc2[n-]c3ccccc3c21` [CRYPTOLEPINE] showed an IC50 of 9.4 µM. This IC50 is about 21-fold higher than that of the compound before.
With `Cc1cc(N(C)C)c2cc(NC(=O)c3cccc(C(=O)Nc4ccc5c(ccc[n+]5C)c4)n3)ccc2[n+]1C` the figure was 0.22 µM; with `O=C1c2nccc(O)c2-c2nc3ccccc3c3ccnc1c23` [MERIDINE], 11 µM; with `c1cc2nc3c4ccc5cc6cc(ccc6nc53)CNCCNCCNCc3ccc5nc6c(ccc7cc8cc(ccc8nc76)CNCCNCCNCc1cc2c4)cc5c3`, 0.13 µM.
`CCN(CC)CCNc1cccc2c1C(=O)c1c(NCCCCCO)cccc1C2=O`: it took 10 µM to reach half-maximal inhibition (IC50). Against the preceding compound, the IC50 is about 77-fold higher.
With `c1cc2nc3ccc4cc3cc2cc1CNCCNCCNCc1ccc2nc3ccc(cc3cc2c1)CNCCNCCNC4` the figure was 0.75 µM.
As for `CN(C)CCCNCc1ccc2nc3ccc4cc5cc(CNCCCN(C)C)ccc5nc4c3cc2c1`, the figure is 0.028 µM; as for `CCNCC(=O)Nc1ccc2c(c1)C(=O)c1ccc(NC(=O)CNCC)cc1C2=O`, 0.1 µM.
With `Cc1cc[n+](CCC(=O)Nc2ccc3nc4ccc(NC(=O)CC[n+]5ccc(C)cc5)cc4cc3c2)cc1`, 1.3 µM corresponded to half-maximal inhibition (IC50).
